Legend:
[1] = microbe, parasite or virus in culture; settings: Mycobacterium tuberculosis, 72 h, read-out: pIC50 (converted)
[2] = microbe, parasite or virus in culture; settings: Mycobacterium tuberculosis, 96 h, read-out: pIC50 (converted)

SMILES	IC50 [1]	IC50 [2]
Cc1c(CN2CCSCC2)cccc1NS(C)(=O)=O	> 501 µM	> 501 µM
COCCC(C)NC(=O)Nc1ccc(N2CCOC2=O)c(OC)c1 (configuration not stated)	> 50.1 µM	> 50.1 µM
CC(NS(=O)(=O)N(C)C1CCCCC1)c1ccccn1 (configuration not stated)	75.6 µM	159 µM
COc1c(F)cc(CN2CC[C@@H](N)[C@H](O)C2)cc1Cl	279 µM	> 501 µM
COC(=O)c1ccc(N2CCC(N(C)c3ccccc3)CC2)nn1	37 µM	12.3 µM
CC1CCCN(c2cc(CNS(C)(=O)=O)ccn2)C1 (configuration not stated)	449 µM	277 µM
Cc1ccc(NC(C)C(=O)NCc2cccs2)cc1Cl (configuration not stated)	5.25 µM	5.63 µM
CCOc1ccnc(N[C@@H](Cc2ccccc2)C(N)=O)n1	> 50.1 µM	> 50.1 µM
CCC(c1nnc(SCC(=O)NCC(C)C)o1)N(C)C (configuration not stated)	217 µM	192 µM
CC(C)C(C)(C#N)NC(=O)CNc1cccc(F)c1 (configuration not stated)	307 µM	292 µM
CC(C)(N)C(O)c1ccc(Br)cc1 (configuration not stated)	126 µM	> 501 µM
COCCNC(=O)Nc1ccc2c(c1)OC(C)(C)O2	65.7 µM	170 µM
COc1cc(C(=O)CCN(C)C)cc(OC)c1OC	196 µM	338 µM
O=C(NCCSc1ccccn1)C1CCCCO1 (configuration not stated)	476 µM	> 501 µM
Cn1nnnc1SCCNCc1ccc(Br)cc1	280 µM	289 µM
COc1ccc(C)cc1CN1CCn2cccc2C1C (configuration not stated)	18.5 µM	45.6 µM
O=C(COC(=O)c1cccs1)c1ccc[nH]1	429 µM	211 µM
CN(C)C(CN)c1cccc(F)c1 (configuration not stated)	> 501 µM	> 501 µM
COc1cccc(N2CCC(N)C2)c1 (configuration not stated)	294 µM	276 µM
O=C(CSc1cnn[nH]1)N1CCc2ccccc2C1	> 501 µM	> 501 µM
O=C(CCN1CCN(c2ccccn2)CC1)NC1CC1	> 501 µM	> 501 µM
Cc1nc(O)cc(CCNC(=O)C2CC(=O)N(CC(C)C)C2)n1 (configuration not stated)	> 50.1 µM	> 50.1 µM

SMILES	IC50 [1]	IC50 [2]
CN(C)S(=O)(=O)c1cc2c(cc1Cl)OCCO2	209 µM	> 501 µM
CCCc1nc(N2CCCC(C)C2)c2c(n1)c(C)nn2CC (configuration not stated)	24.2 µM	> 50.1 µM
CSCc1ccc(C(=O)NCCCNc2ccc(C(F)(F)F)cn2)cc1	> 50.1 µM	> 50.1 µM
COc1cccc(CN2CCC(CO)(Cc3ccc(Cl)cc3)CC2)c1O	29.4 µM	26.1 µM
CCCc1nc(C(=O)N2CC(c3ccncc3)C2)cs1	326 µM	356 µM
Cc1ccc(C2CCCN2Cc2nc(-c3ccco3)no2)cc1 (configuration not stated)	21.8 µM	18.7 µM
OCCOCCN1CCC(=Cc2ccccc2)CC1	203 µM	242 µM
CC(C)N(CCNC(=O)c1[nH]nc2ccc(I)cc12)C(C)C	17.9 µM	15.8 µM
CNCC(O)CN1CCc2ccccc2CC1 (configuration not stated)	254 µM	289 µM
CSCCC(=O)NC(C)c1ccc2c(c1)OCCCO2 (configuration not stated)	> 501 µM	> 501 µM
CC(=O)NCC1CN(c2ncccc2F)CCO1 (configuration not stated)	243 µM	210 µM
CCCc1ccc(S(=O)(=O)N2CCNCC2)cc1	299 µM	> 501 µM
CCOC(=O)c1ccc(N2CCC(CCO)CC2)nc1	84 µM	198 µM
CCOc1ccc(Cl)cc1CCNS(=O)(=O)N(C)C	245 µM	282 µM
CN(CC1(C)COC1)C(=O)c1cc(-c2cnn(C)c2)nc2ccccc12	> 50.1 µM	> 50.1 µM
Cc1ccc(C(C)C)c(OCC(O)CNCCO)c1 (configuration not stated)	158 µM	127 µM
CN(CCS(=O)(=O)c1cc(Cl)ccc1Cl)CC(N)=O	24.7 µM	> 50.1 µM
CSc1ncc(C(=O)N2CCN(c3ccccc3C)CC2C)cn1 (configuration not stated)	16.4 µM	18.3 µM
Cc1csc(N2CCN(C(=O)c3ccc(C)s3)CC2)n1	> 50.1 µM	15.5 µM
CSCCN(C)Cc1cn(-c2ccccc2)nn1	> 501 µM	> 501 µM
CCc1cccc2c1N(C(=O)[C@@H](N)CC)CC2	244 µM	> 501 µM
CC(C)(C)c1cnc(CN2CCOCC2C(N)=O)o1 (configuration not stated)	158 µM	> 501 µM

SMILES	IC50 [1]	IC50 [2]
Cc1nsc(C(=O)NCCCc2ccccc2)n1	> 50.1 µM	47.1 µM
COc1cccc(CCN)n1	194 µM	192 µM
CCOc1cccc(CSc2nc(=O)ccn2CC)n1	460 µM	> 501 µM
COCCc1noc(C2CNC2)n1	247 µM	250 µM
Cn1c(CO)nnc1SCC=Cc1ccccc1	240 µM	289 µM
COc1ccc(Br)c(CN)c1	116 µM	184 µM
Cc1nc(C(=O)NCc2cccs2)ccc1C#N	82.4 µM	64.4 µM
CC(C)(C)c1noc(CCC(=O)N2CCSCC2)n1	> 501 µM	> 501 µM
COc1ccc(NS(=O)(=O)N(C)C)c(Br)c1	> 501 µM	> 501 µM
CCCN1CCN(C(=O)COc2ccccc2)CC1	33.3 µM	57.3 µM
FC(F)Oc1ccc(NCc2nc(C3CC3)no2)c(OC(F)F)c1	24.2 µM	> 50.1 µM
O=C1CN(CC(=O)N2CCCCCCC2)CCN1	> 501 µM	> 501 µM
CCNC(=O)c1cc(-c2ccc(F)cc2)n[nH]1	209 µM	> 501 µM
CNC(=O)c1sc(NC2CC2)nc1C	72.7 µM	88.1 µM
NC(=O)COc1cc(Cl)cc(Cl)c1	246 µM	278 µM
CCc1ncc(-c2cn(CCSc3ncn[nH]3)nn2)cn1	> 50.1 µM	> 50.1 µM
Cc1ccc(N2CCN(C)c3ncccc3C2)nn1	> 50.1 µM	> 50.1 µM
CCC[C@H]1CN(S(=O)(=O)c2ccnn2CCC)C[C@@H]1N	283 µM	> 501 µM
COCC(=O)N1CCC2(CC1)OCCO2	> 501 µM	> 501 µM
CC(C)OCCS(=O)(=O)N(C)Cc1ccco1	110 µM	104 µM
Cc1ccc(-n2nnnc2NC2CC2)cc1	263 µM	> 501 µM
CN(C)C(=O)CCOC(=O)c1cccc(Cl)c1	227 µM	> 501 µM

SMILES	IC50 [1]	IC50 [2]
Cn1cc(Br)cc1C(=O)NCCCNc1ncccn1	292 µM	> 501 µM
CCC(CO)Nc1ncc(C(F)(F)F)cc1Cl (configuration not stated)	> 501 µM	> 501 µM
N#Cc1ccc(NCCOc2ccccc2)nc1	95.3 µM	48.4 µM
Cc1cccc(-c2ccc(C(=O)NCCN3CCOCC3)c(=O)[nH]2)c1	> 50.1 µM	> 50.1 µM
CC(Sc1nnc[nH]1)C(=O)Nc1ccc(C#N)cc1 (configuration not stated)	> 501 µM	> 501 µM
NCCN1CCN(c2cccc(C(F)(F)F)c2)CC1	356 µM	260 µM
CC(CCc1ccco1)NC(=O)Nc1cc(C(F)(F)F)c[nH]c1=O (configuration not stated)	15.9 µM	43.3 µM
CCOCCC(=O)N1c2ccccc2OCC1C (configuration not stated)	97.6 µM	> 501 µM
CCOC1COC2(CCN(Cc3ccc4c(c3)OCO4)CC2)C1 (configuration not stated)	> 50.1 µM	> 50.1 µM
O=S(=O)(NC1CCCC1)c1cncc(Cl)c1	226 µM	> 501 µM
COc1ccc(C(N)c2ccc(OC)cc2OC)cc1 (configuration not stated)	186 µM	291 µM
N[C@@H]1CC[C@@H](NC(=O)c2cc3sccc3[nH]2)C1	167 µM	> 501 µM
CC1CC(=O)NCCN1 (configuration not stated)	> 501 µM	> 501 µM
CSc1cc(NC(=O)NCCc2ccccn2)ccn1	411 µM	438 µM
COc1ccc(-c2nc(CCN)co2)cc1	80.5 µM	71.4 µM
Cc1nc(CN2CCC(CNC(=O)NCCC3CCC3)CC2)oc1C	1.06 µM	0.791 µM
COc1ccc(OC)c(CNc2nc(C)nn2C)c1	199 µM	> 501 µM
O=C(C1CC1)N1CCN(Cc2cccc(F)c2)CC1	> 501 µM	210 µM
NCc1coc(-c2cccs2)n1	144 µM	298 µM
Cc1nn(CCN(C)c2ccccc2)c(N)c1C#N	265 µM	> 501 µM
O=S1(=O)CCCN(Cc2ccc(Br)c(F)c2)CC1	386 µM	242 µM
CCOC(=O)Nc1ccc2c(c1)OCCO2	> 501 µM	325 µM

SMILES	IC50 [1]	IC50 [2]
CN1CCN(C(=O)CC2Cc3ccccc3C2)CC1	96 µM	43.7 µM
CSc1ccccc1NC(=O)CCn1cnc(C#N)n1	> 501 µM	> 501 µM
CCSc1nc2ccccc2c(=O)n1OCC(=O)OC	24.9 µM	> 50.1 µM
CC(C(N)=O)N1CCC(=Cc2ccccc2)CC1 (configuration not stated)	290 µM	364 µM
O=C(c1cn(-c2ccccc2)nn1)N1CCOCC(O)C1 (configuration not stated)	> 50.1 µM	> 50.1 µM
CCc1noc(CNc2cc3c(cc2Cl)OCCO3)n1	26.8 µM	8.97 µM
Cc1cc(C(=O)NCc2csc(N(C)C)n2)c2ccc(C)c(C)c2n1	19 µM	13.6 µM
NCCc1nc(C2CC2)cs1	91.5 µM	103 µM
OCCOCCSc1n[nH]c(-c2cc(F)cc(F)c2)n1	> 501 µM	> 501 µM
O=C1CCC(Nc2nc(-c3ccccc3)ns2)CN1 (configuration not stated)	> 501 µM	286 µM
CC[C@H](N)C(=O)N(C)CCOc1cccc(Cl)c1	377 µM	263 µM
O=C(NCC(F)(F)F)C1CN(C(=O)c2cnccn2)C1	> 50.1 µM	> 50.1 µM
OC1CCN(Cc2cc(Cl)c3c(c2)OCCO3)CC1	> 501 µM	> 501 µM
CN(Cc1ccc(Oc2ccccc2)cc1)C(=O)CN	130 µM	157 µM
NS(=O)(=O)c1ccc(F)c(C(=O)Nc2ccccc2)c1	262 µM	> 501 µM
CC(Nc1cccc(OC(F)(F)F)c1)C(=O)NC(N)=O (configuration not stated)	184 µM	> 501 µM
O=C(c1cccc(F)c1)N1CCN(c2nccs2)CC1	228 µM	> 501 µM
O=C(NCCNc1ccc(C(F)(F)F)cn1)c1ccc(Cl)cc1F	25.1 µM	19.3 µM
